This note sets out measurements from paper PMC6890717, “Conversion of Cytochrome P450 2D6 of Human Into a FRET-Based Tool for Real-Time Monitoring of Ajmalicine in Living Cells” (Frontiers in Bioengineering and Biotechnology, 2019).

One data set deals with E. coli BL21(DE3) cells. The data set can be described thus: Real-time monitoring of ajmalicine in bacterial cells expressing FLIP-Ajn. It is filed as cell-based, Escherichia coli. Particulars: 10 mM ajmalicine added externally; increased from 0.2; 30 min recording. As for the experimental part:
The developed recombinant construct pRSET-B_ECFP_CYP2D6_Venus (FLIP-Ajn) was introduced in E. coli BL21(DE3) cells and grown at 37°C (150 rpm) in an incubator shaker until O.D.600 of the bacterial growth reached 0.6. The cells were then treated with 0.5 mM IPTG and kept for 24 h at 21°C with continuous shaking for the expression of the nanosensor protein. The real-time monitoring of ajmalicine in the bacterial cells was carried out by the addition of 10 mM ajmalicine to the bacterial culture placed in the multi-well plates. Ratio of emission intensities of Venus/ECFP were recorded for 30 min and data were collected at every 5 min intervals. The control experiment includes the bacterial cells without ajmalicine. The excitation filters/slits used were same as described in the previous analysis.

In data set [1] the test system is Saccharomyces cerevisiae/URA3 strain BY4247. The data set can be described thus: Real-time monitoring of ajmalicine in yeast cells expressing FLIP-Ajn (confocal). The format is cell-based. The following applies: 10 mM ajmalicine. The method, then: Gateway-cloned pYES-DEST_ECFP_CYP2D6_Venus was transformed in Saccharomyces cerevisiae/URA3 strain BY4247. The transformed yeast cells were cultured in synthetic defined (SD) medium containing dextrose (2%) as a source of carbon and galactose (1%) for induction. The expressed yeast cells were subjected to confocal microscopic analysis with Leica TCS-SPE scan head and 63x objective lens with oil immersion system. The expressed culture was provided with 10 mM ajmalicine. Ratio of emission intensities of Venus/ECFP were recorded for 10 min and data were collected at every 20 s intervals.

For the next data set, the system named is HEK-293T cells. The data set can be described thus: Real-time monitoring of ajmalicine in transfected animal cells (confocal). Particulars: 10 mM ajmalicine; 0.4 ± 0.05 at 0 s. The format is cell-based, human. As for the experimental part: The HEK-293T (human embryonic kidney) cells were cultured in Dulbecco's modified Eagle's medium containing 50 μg/ml ampicillin, 10% fetal calf serum, and CO2 in an incubator shaker at 37°C. Calcium phosphate-mediated transient transfection of HEK-293T cells with pCDNA_ECFP_CYP2D6_Venus was carried out in a 6-well culture plate and was allowed to express for 2 days. Washing buffer comprised of 50 mM NaCl, 1 mM MgCl2, 5 mM KCl, 5 mM D-glucose, and 25 mM HEPES (pH 7.2–7.4). After a gap of 2 days after transfection, the cultured cells were set for imaging analysis using a confocal microscope with 1.53 numerical aperture, cooled charge-coupled camera, and 63x oil immersion objective lens. The culture was supplemented with 10 mM ajmalicine and the images were taken. Ratio of emission intensities of Venus/ECFP were recorded for 10 min. The laser setting used for the analysis was same for both yeast and animal cells. Data were collected after an interval of 20 s and the exposure time set for acquiring images was 300 ms.

Data set [2] relates to Catharanthus roseus cells. The experiment in a line: FRET ratio in transformed plant suspension culture (confocal). It is filed as cell-based. Particulars: slow and consistent addition of ajmalicine to suspension culture; increased from 0.7. As for the experimental part:
Leaf explants were used in the study for initiating callus. The segments of Catharanthus roseus leaves were collected from the herbal garden of Jamia Hamdard, New Delhi. The collected explants were then washed continuously for 20 min under tap water. The explants were then treated with 0.5% cetrimide and 0.1% HgCl2 for 10 and 5 min, respectively. Further sequential washing with 70% alcohol and sterilized distilled water for 1 min were performed. The culturing of sterile explants was done on MS (Murashige and Skoog, [1962]) medium containing 0.5 μM 2,4-D, 3% sucrose, and 0.62% agar. The pH of the medium was maintained to 5.65, and the cultured tubes were kept in a culture room at 25 ± 2°C.
Agrobacterium tumefaceins strain EHA105 were transformed with pEarleyGate100_ECFP_CYP2D6_Venus, and the suspension culture was initiated after inoculating a single colony of transformed Agrobacterium strain in LB medium. The medium was supplemented with […], and […], and the culture was maintained at 28°C for 36 h. […]
Suspension culture of Catharanthus roseus transformed with pEarleyGate100_ECFP_CYP2D6_Venus was observed under a Leica confocal microscope with a 10x objective. The culture was subjected to fluorescence analysis, and the ratio of Venus/ECFP emission intensities was recorded after excitation at 430 nm. […]

In data set [3] the test system is FLIP-Ajn (ECFP_CYP2D6_Venus, human Cytochrome P450 2D6). The data set can be described thus: Specificity analysis of FLIP-Ajn with CYP2D6 inhibitors/substrates (FRET ratio). The following applies: 10 mM compound added to FLIP-Ajn; change <0.2 regarded as insignificant.
Protocol: Characterization of nanosensor was performed using microplate reader (Synergy H1, Biotek, USA). […] After spectral analysis, pH dependence, specificity, and affinity of the nanosensor were studied. […] Specificity testing of the developed nanosensor was carried out by the addition of 10 mM of various CYP2D6 inhibitors/substrates to FLIP-Ajn.

Take `COC(=O)C1=CO[C@@H](C)[C@H]2CN3CCc4c([nH]c5ccccc45)[C@@H]3C[C@H]12` [ajmalicine]: the “FRET ratio after addition of ajmalicine” value with E. coli BL21(DE3) cells stood at 0.4; in data set [1] (increased from 0.65 within 10 min), 1.61; in data set [2], 3.9. Moreover, in data set [1] (Figure 8), the “increased FRET ratio” value is listed as ~ 1. In the data set with HEK-293T cells, the “FRET ratio at 400 s” value was determined as 0.85 ± 0.05.
For the molecule `COC(=O)C1=CO[C@@H](C)[C@H]2Cn3ccc4c5ccccc5nc-4c3C[C@H]12` [serpentine], in data set [3], the “FRET ratio change relative to control” value is listed as ~ 0.14.
